The record followed here is PubChem BioAssay AID179 (DTP/NCI, 2004).

The source made the active and inactive calls.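 How the source made its calls: active means compounds giving half or more protection of infected cells from virus-caused growth loss, again on retest; inactive means the rest.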 Where a SMILES comes first, the peptide text is derived from it. [ ]: non-standard residue; d: D form. The star is where a group is joined. Phe(4-Cl) = N[CH](Cc1ccc(Cl)cc1)C(=O)O; 2Nal = N[CH](Cc1ccc2ccccc2c1)C(=O)O; 3Pal = N[CH](Cc1cccnc1)C(=O)O; Boc = CC(C)(C)OC(=O)*

For the assay, the system named is CEM cells HIV-1 protection, formazan growth assay. The assay can be described thus: NCI AIDS Antiviral Assay. As to conditions: for IC50: measured here: growth of uninfected CEM cells. In a few lines:
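CEM (human) cells, HIV-1 infected vs uninfected, 5-point dosing, formazan growth read-out. Retest threshold 50% protection.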

One may read the EC50 as the midpoint of the concentration-response curve. The term IC50 denotes the concentration needed to halve the response being measured. Read a high IC50 as a need for much substance. For the compound `CCCCCCCCC[C@@H]1C[C@H](O)[C@H](Cc2ccccc2)N1C(=O)OC(C)(C)C`, the EC50 is over 200 µM and the IC50 is 35.5 µM. With `CN=c1ncc2nc(-c3ccccc3)c(-c3ccccc3)n(C)c-2n1`, the outcome was inactive.

In the case of `CCNC(=O)c1ccc(C)c(N=NN(C)C)c1`, the EC50 was over 288 µM and the IC50 is over 288 µM.

For the compound `O=P(O)(OCC(O)O)OCC(O)O`, the outcome was inactive. Consider `[N-]=[N+]=NCC(O)Cn1cnc2c(NC(=O)c3ccccc3)ncnc21` (centres undefined), for which the EC50 is over 741 µM and the half-inhibitory concentration (IC50) was 427 µM. Consider `Brc1ccc2c(ccc3nc4nnnn4nc32)c1`, for which the EC50 is over 17.4 µM and the half-maximal inhibitory concentration (IC50) is over 17.4 µM. On to `O=C(N=C1N(c2ccccc2)C(=O)C(=O)N1c1ccccc1)c1ccccc1`, for which the EC50 was over 200 µM and the IC50 is 5.62 µM.

Take `CCC(/C=C/c1ccccc1)=N\N=C(\C=C\c1ccccc1)CC`: the EC50 is over 41.7 µM and the IC50 was 2.51 µM. Turning to `O=C(CC(=O)N1N=C(N2c3ccccc3Sc3ccccc32)CC1c1ccccc1)Nc1ccccc1Cl` (centres undefined), the EC50 is over 200 µM and the IC50 is over 200 µM. On to `COC(=O)C1C(C(=O)OC)C2(OC(c3ccc(Cl)cc3)=CC2=O)C12OC(c1ccc(Cl)cc1)=CC2=O` (centres undefined), for which the EC50 was over 200 µM and the IC50 was 4.27 µM. Consider `CN(C)CCNC(=O)c1cccc2c1Oc1c(cccc1[N+](=O)[O-])O2`, for which the EC50 was over 20 µM and the concentration for half-maximal inhibition (IC50) worked out at 0.245 µM. Take `CC(=O)CC(C)=O.CC(=O)CC(C)=O.CC(=O)CC(C)=O.[Mn]`: the EC50 is over 200 µM and the IC50 came to 25.7 µM. As to `c1ccc(CSC2(SCc3ccccc3)CCCC2)cc1`, the outcome was inactive. Regarding `Nc1[nH]c(=S)nc2snnc12`, the EC50 was over 200 µM and the IC50 is over 200 µM. On to `COC(=O)Cc1c(-c2c(CC(=O)OC)c3ccccc3n2C2OC(COC(C)=O)C(OC(C)=O)C(OC(C)=O)C2OC(C)=O)[nH]c2ccccc12` (centres undefined), for which the EC50 was over 200 µM and the IC50 turned out to be 26.3 µM. In the case of `CCOC(=O)c1c(C)cc(=O)n2c1[nH]c1ccccc12`, the EC50 was over 200 µM and the IC50 was found to be 151 µM.

`O=C(O)/C(=C\c1ccccc1Cl)S(=O)(=O)c1ccccc1`: the result was inactive. With `CSC1OC(C)(C)OC1=O` (centres undefined), the EC50 was over 200 µM and the IC50 was over 200 µM.

As to `COc1c(C)c2c(c(=O)c3c(C)cccc3n2C)c2c1c(=O)c1c(C)cccc1n2C`, the EC50 is over 200 µM and the IC50 was determined as 155 µM. With `CC(=O)Nc1cc(Cl)cc(Cl)c1O`, the EC50 is over 200 µM and the 50% inhibitory concentration (IC50) is 53.7 µM.

For the compound `NS(=O)(=O)c1ccc(NC(=O)/C=C\C(=O)O)cc1`, the EC50 is over 200 µM and the IC50 was over 200 µM. Consider `O=C1C(=Cc2ccc([N+](=O)[O-])o2)C(=O)N(CCc2ccccc2)S(=O)(=O)N1CCc1ccccc1`, for which the EC50 was over 5.25 µM and the IC50 was over 5.25 µM. Consider `COC(=O)NNc1c([N+](=O)[O-])cnn(-c2ccccc2)c1=O`, for which the EC50 is over 58.9 µM and the 50% inhibitory concentration (IC50) is 0.295 µM. With `O=S(=O)([O-])[O-].O=c1[nH]cnc2nc[n-]c12.[Cu+2].[OH3+].[OH3+]`, the EC50 is over 10.7 µM and the 50% inhibitory concentration (IC50) is over 10.7 µM. On to `Nc1nnc(N)n1-n1c(N)nnc1N`, for which the EC50 is over 200 µM and the IC50 was found to be 166 µM. Take `CC(=O)CCCCn1c(=O)c2c(nc(Br)n2C)n(C)c1=O`: the EC50 is over 200 µM and the IC50 amounted to 52.5 µM.

In the case of `O=C(Nc1ccccc1)Nc1ccccn1`, the EC50 is 166 µM and the IC50 was over 200 µM. Regarding `COc1ccc(C(OCC2OC(n3ccc(NC(=O)c4ccccc4)nc3=O)CC2OP2(=S)SCCS2)(c2ccccc2)c2ccc(OC)cc2)cc1` (centres undefined), the EC50 is over 100 µM and the half-maximal inhibitory concentration (IC50) was 44.7 µM. On the same counts, the results for `CC(=O)Nc1ccc(/C=C2\N=C(c3ccccc3)OC2=O)cc1` are over 12.3 µM and over 12.3 µM. `CC1=C(C)CC2(CCCCC2=O)S(=O)C1` (centres undefined): the EC50 is over 1100 µM and the 50% inhibitory concentration (IC50) is 851 µM. For the compound `Nc1nc2c(c(=O)[nH]1)C(c1ccc(Cl)cc1)C=C(c1ccccc1)N2` (centres undefined), the EC50 is over 200 µM and the half-maximal inhibitory concentration (IC50) is 14.1 µM. Turning to `CC(=O)NC(Cc1ccc2ccccc2c1)C(=O)NC(Cc1ccc(Cl)cc1)C(=O)NC(Cc1cccnc1)C(=O)NC(CO)C(=O)NC(Cc1ccc(O)cc1)C(=O)NC(CCCN=C(N)N)C(=O)NC(CC(C)C)C(=O)NC(CCCN=C(N)N)C(=O)N1CCCC1C(=O)NC(C)C(N)=O` (centres undefined) (Ac-[2Nal][Phe(4-Cl)][3Pal]SYRLRPA-NH2; configuration not given here), the EC50 is over 61.7 µM and the half-maximal inhibitory concentration (IC50) came out at 15.1 µM.

On to `CC(C)(C)OC(=O)CCCCCNC(=O)CCCCCNC(=O)CCC(CN(CC(=O)OCc1ccccc1)CC(=O)OCc1ccccc1)N(CC(=O)OCc1ccccc1)CC(=O)OCc1ccccc1` (centres undefined), for which the outcome was inactive. For `CCSC1(SCC)CC(Cc2ccc(OC)cc2)N(C=NC(C)(C)C)C1` (centres undefined), the EC50 is over 240 µM and the 50% inhibitory concentration (IC50) was found to be 57.5 µM. For the compound `CCOc1ccc(/C=C/C(=O)c2ccccc2)cc1`, the EC50 is over 200 µM and the IC50 came out at 34.7 µM. Regarding `Oc1ccccc1C(c1cc2c(cc1O)OCO2)N1CCOCC1` (centres undefined), the EC50 was over 200 µM and the IC50 is 11 µM. On to `CCCCC1(C(=O)OCC)OC12CCCCC2` (centres undefined), for which the EC50 is over 200 µM and the IC50 was over 200 µM. `CCC1=NC(C(F)(F)F)(C(F)(F)F)N=C(/N=C(/N)N(C)C(C(C)C)P(=O)(OC(C)C)OC(C)C)O1` (centres undefined): the EC50 is over 200 µM and the concentration for half-maximal inhibition (IC50) is over 200 µM. For `CCCC(=O)[O-].N.N.N.N.N.[Co+3].[O-][Cl+3]([O-])([O-])[O-]`, the outcome was inactive. On the same count and under the same terms, to `C=C1C(OC(=O)C(OC(C)=O)C(c2ccccc2)N(C)C)C[C@H](O)[C@]2(C)C1C[C@@H]1CC(OC(C)=O)C(C)=C([C@@H](OC(C)=O)C2O)C1(C)C` (some centres undefined) belongs “inactive”. For the compound `COC(=O)CNC(=O)C(Cc1ccccc1)NC(=O)C(Cc1ccccc1)NC(=O)OC(C)(C)C` (stereo not drawn) (Boc-Phe-Phe-Gly-OMe; configuration not given here), the EC50 was over 200 µM and the IC50 was determined as 24 µM. Take `COC1OC(C(C)O)C2OC(C)(C)OC12` (centres undefined): the EC50 is over 200 µM and the IC50 is over 200 µM. Regarding `COc1ccc([C@@]23CCC(=O)C[C@@H]2N(C)CC3)cc1OC`, the EC50 was over 200 µM and the half-maximal inhibitory concentration (IC50) is over 200 µM. On to `O=c1c2cc(-c3ccccc3)sc2nc2n1N=C(c1ccccc1)CS2`, for which the EC50 is over 200 µM and the half-inhibitory concentration (IC50) was over 200 µM. Regarding `FC(F)=C(c1ccc(-c2ccc(Cl)cc2)cc1)C(F)(F)F`, the EC50 is over 200 µM and the IC50 came out at 20.9 µM. Consider `Cc1ccc(S(=O)(=O)NNC(=O)c2sc(-c3nc(C)c(C(=O)NNS(=O)(=O)c4ccc(C)cc4)s3)nc2C)cc1`, for which the EC50 was over 81.3 µM and the IC50 is over 81.3 µM. In the case of `O=C(NCc1ccc(Cl)cc1)c1cc2sccc2nc1C(F)(F)F`, the EC50 was 93.3 µM and the IC50 was over 200 µM. Turning to `O=C(O)CN(CCN(CC(=O)O)CC(=O)O)CCN(CC(=O)O)CC(=O)O`, the EC50 is over 200 µM and the IC50 was over 200 µM. `Cc1cccc(Nc2cn(COCc3ccccc3)c(=O)[nH]c2=O)c1`: the EC50 is over 200 µM and the IC50 was 81.3 µM.

For the compound `Cn1c(COc2ccc(/C=N/NC(=O)c3cccc(C(=O)N/N=C/c4ccc(OCc5c[n+]6ccccc6n5C)cc4)c3)cc2)c[n+]2ccccc12`, the EC50 was over 6.92 µM and the IC50 was over 6.92 µM. `COc1ccc2[nH]c3cc4c(=O)c5cc(OC)ccc5[nH]c4cc3c(=O)c2c1`: the EC50 was over 72.4 µM and the IC50 is over 72.4 µM. As for `O=C(O)c1cc(Cc2cc(C(=O)O)c(O)c(C(=O)c3ccc(O)c(C(=O)O)c3)c2)ccc1O`, the EC50 is 537 µM and the IC50 was found to be 832 µM.

In the case of `COc1cccc(C2c3cc4c(cc3OC(NNc3ccccc3)C2C)OCO4)c1O` (centres undefined), the EC50 is over 200 µM and the concentration for half-maximal inhibition (IC50) worked out at 11.2 µM. For `O=C1c2ccccc2C(=O)C1(Cl)C(Cl)c1ccc([N+](=O)[O-])cc1` (centres undefined), the EC50 is over 200 µM and the concentration for half-maximal inhibition (IC50) amounted to 12 µM. Take `NC(=O)C(=Cn1c(=S)[nH]c2ccccc21)C(N)=O`: the EC50 is over 200 µM and the IC50 was over 200 µM. With `COc1ccc(C2(CC(C)O)SCCCS2)cc1` (centres undefined), the EC50 was over 200 µM and the concentration for half-maximal inhibition (IC50) worked out at 115 µM. For `O=[N+]([O-])c1ccc2occ3c2c1CCC3`, the concentration giving a half-maximal response (EC50) was 67.6 µM and the IC50 came out at 263 µM. On the same counts, the results for `CC12Nc3ccccc3N1C(=O)c1ccccc12` (centres undefined) are over 200 µM and 107 µM. For `CCOC(=O)C(CN1CCN(CC(NC=O)(C(=O)OCC)C(=O)OCC)CC1)(NC=O)C(=O)OCC`, the EC50 was over 200 µM and the IC50 amounted to 35.5 µM. As to `COc1ccc(Nc2nc(C#N)c(N)s2)cc1`, the EC50 is over 490 µM and the IC50 was 117 µM. Consider `CN1C(c2ccccc2)=C(C#N)C(=O)CC(c2cccs2)N1C` (centres undefined), for which the EC50 is over 200 µM and the half-maximal inhibitory concentration (IC50) came out at 191 µM.

On to `O=c1sc(-c2nc3ccccc3[nH]2)c(/N=C/c2ccccc2)n1-c1ccccc1`, for which the EC50 is over 2.63 µM and the IC50 is over 2.63 µM. In the case of `Clc1ccc(C2SCc3nc4ccccc4n32)cc1` (centres undefined), the outcome was inactive. `C=C1CC[C@]2(C)C3CC[C@]4(C)C(C(C)CCC(=O)O)CCC4[C@@H]3CC[C@@H]2C1` (some centres undefined): the EC50 is over 5.13 µM and the half-inhibitory concentration (IC50) is over 5.13 µM.

Turning to `CC(C)CCC[C@@H](C)C1CCC2[C@@H]3CC(O)C4C[C@@H](OS(=O)(=O)O)CC[C@]4(C)C3CC[C@@]21C` (some centres undefined), the EC50 is over 49 µM and the half-inhibitory concentration (IC50) was 24.5 µM. As to `COC(=O)Cc1cccc2c1CCC2=O`, the EC50 is over 200 µM and the 50% inhibitory concentration (IC50) is over 200 µM.

Turning to `CN1CCCS/C1=C1/SC(=S)N(c2ccccc2)C1=O`, the EC50 is over 30.9 µM and the concentration for half-maximal inhibition (IC50) was over 30.9 µM. Take `CC(C)C(=O)/C=C/c1c(Cl)cccc1Cl`: the result was inactive.

On to `Cn1nnnc1SCC1=C(C(=O)O)N2C(=O)C(NC(=O)C(OC=O)c3ccccc3)C2SC1` (centres undefined), for which the EC50 is over 200 µM and the IC50 is over 200 µM.
